Holding throughout (assay type): cell-based
In data set [1] the target is T1, AR (Homo sapiens, UniProt P10275, T878A).
T1 construct: endogenous in cells; host or cells: LNCaP cells
T1 sequence (P10275 1-920 T878A): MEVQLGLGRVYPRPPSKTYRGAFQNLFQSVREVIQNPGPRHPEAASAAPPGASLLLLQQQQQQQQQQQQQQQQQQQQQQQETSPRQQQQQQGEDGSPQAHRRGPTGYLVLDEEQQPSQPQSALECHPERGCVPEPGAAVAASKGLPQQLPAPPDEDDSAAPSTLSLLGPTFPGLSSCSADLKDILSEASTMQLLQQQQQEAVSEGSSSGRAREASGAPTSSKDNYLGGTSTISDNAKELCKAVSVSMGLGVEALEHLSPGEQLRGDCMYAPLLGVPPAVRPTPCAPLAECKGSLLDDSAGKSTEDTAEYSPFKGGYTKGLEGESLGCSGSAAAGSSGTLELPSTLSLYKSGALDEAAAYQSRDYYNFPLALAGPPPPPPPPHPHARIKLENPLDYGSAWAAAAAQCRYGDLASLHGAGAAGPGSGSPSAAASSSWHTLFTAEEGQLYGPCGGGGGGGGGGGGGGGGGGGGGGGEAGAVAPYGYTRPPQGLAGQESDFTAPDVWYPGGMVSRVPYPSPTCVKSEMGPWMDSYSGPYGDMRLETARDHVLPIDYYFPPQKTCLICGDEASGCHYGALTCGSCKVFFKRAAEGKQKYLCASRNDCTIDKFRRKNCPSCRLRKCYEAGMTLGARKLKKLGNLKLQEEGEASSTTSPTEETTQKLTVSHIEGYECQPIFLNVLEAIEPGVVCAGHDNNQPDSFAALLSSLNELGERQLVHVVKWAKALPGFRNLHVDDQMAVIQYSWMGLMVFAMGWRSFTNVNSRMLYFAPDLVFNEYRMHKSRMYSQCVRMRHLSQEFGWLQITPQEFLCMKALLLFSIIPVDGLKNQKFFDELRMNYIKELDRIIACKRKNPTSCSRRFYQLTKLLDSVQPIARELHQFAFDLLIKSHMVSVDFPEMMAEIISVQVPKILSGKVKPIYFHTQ
Put plainly: In Cell Western AR degradation assay in LNCaP cells. The note with it: 18 hrs, greater than 50% degradation at 10 μM (method says 20 μM). A digest of the protocol:
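After 48 h plating in RPMI with 8% CFS, LNCaP cells were exposed to 20 μM test compound for 18 h, fixed with 3.7% formaldehyde and permeabilized. AR was detected with anti-AR N20 antibody and an infrared secondary, imaged by LI-COR Odyssey and normalized to DRAQ5 DNA stain.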

The next data set relates to CV1 cells. The data set can be described thus: Toxicity of test compound in the CV1 reporter gene assay (Renilla-Luc). Background: Reporter assays use an easily measured gene product as a stand-in for the process of interest.
In data set [2] the test system is AR. Put plainly: Real-time PCR of AR target gene transcription in LNCaP-AR (AR overexpressing) cells, CRPC model. The note with it: 20 μM, score vs enzalutamide/bicalutamide; for B4 = Relative agonist activity (no R1881) of test compounds (20 μM) in AR overexpressing LNCaP cells (NKX3.1 AR target gene): no R1881, NKX3.1 gene; for B5 = Relative antagonist activity (plus 0.1 nM R1881) of test compounds (20 μM) in AR overexpressing LNCaP cells (NKX3.1 AR target gene): plus 0.1 nM R1881, NKX3.1 gene; for B7 = Relative antagonist activity (plus 0.1 nM R1881) of test compounds (20 μM) in AR overexpressing LNCaP cells (PSA AR target gene): plus 0.1 nM R1881, PSA gene. Also noted: key to B5 = Relative antagonist activity (plus 0.1 nM R1881) of test compounds (20 μM) in AR overexpressing LNCaP cells (NKX3.1 AR target gene) / B7 = Relative antagonist activity (plus 0.1 nM R1881) of test compounds (20 μM) in AR overexpressing LNCaP cells (PSA AR target gene): a score of 1 indicates higher antagonist efficacy (highly desired activity) than benchmark compound enzalutamide; a score of 2 indicates equal antagonist efficacy to enzalutamide (desirable); a score of 3 indicates antagonist efficacy between enzalutamide and bicalutamide (less desirable activity); a score of 4 indicates antagonist efficacy equal to bicalutamide (liability); a score of 5 indicates antagonist efficacy worse than bicalutamide (liability); key to B4 = Relative agonist activity (no R1881) of test compounds (20 μM) in AR overexpressing LNCaP cells (NKX3.1 AR target gene) / B6 Relative agonist activity (no R1881) of test compounds (20 μM) in AR overexpressing LNCaP cells (PSA AR target gene): a score of 1 indicates less agonism (highly desired activity) than benchmark compound enzalutamide; a score of 2 indicates equal agonism to enzalutamide (desirable); a score of 3 indicates agonism between enzalutamide and bicalutamide (less desirable activity); a score of 4 indicates equal agonism to bicalutamide (liability); a score of 5 indicates higher agonism than bicalutamide (liability). On the procedure: Real-Time PCR (CRPC model of AR overexpressing prostate cancer cells, Table 2, B4-B7). LNCaP-AR (AR overexpressing cells) cells were seeded in 12-well plates in RPMI 1640 (8% charcoal-stripped fetal calf serum (CFS)). […] AR target gene transcription (PSA, NKX3.1, FKBP5) was assessed by realtime PCR.
For B4-B7, scoring system is based on the relative AR target gene agonist/antagonist activity of test compounds when compared to benchmark compounds enzalutamide or bicalutamide. […] The lack of agonist activity is desirable for therapies intended to treat CRPC. For B4 and B6, a score of 1 indicates less agonism (highly desired activity) than benchmark compound enzalutamide, a score of 2 indicates equal agonism to enzalutamide (desirable), a score of 3 indicates agonism between enzalutamide and bicalutamide (less desirable activity), a score of 4 indicates equal agonism to bicalutamide (liability), and a score of 5 indicates higher agonism than bicalutamide (liability). For B5 and B7 a score of 1 indicates higher antagonist efficacy (highly desired activity) than benchmark compound enzalutamide, a score of 2 indicates equal antagonist efficacy to enzalutamide (desirable), a score of 3 indicates antagonist efficacy between enzalutamide and bicalutamide (less desirable activity), a score of 4 indicates antagonist efficacy equal to bicalutamide (liability), and a score of 5 indicates antagonist efficacy worse than bicalutamide (liability) For B9, Compounds that degrade AR (greater than 50% degradation at 10 μM) are indicated.

`CC1CC(=O)C2=C(C1)Nc1ccc3ccccc3c1C2c1ccc(F)cc1` (stereo not drawn) [Compound A4]: the “B9 = AR degradation in LNCaP cells (In-Cell Western)” value (from here on “B9 = AR degradation in LNCaP cells”) on AR [1] was “Degrader (Compounds that degrade AR (greater than 50% degradation at 10 μM) are indicated)”. Moreover, in the data set on CV1 cells, the “B2 = % Toxicity of test compound (20 μM)” value is given as 0% and the “B3 = % Toxicity of test compound (60 μM)” value is 51%. In the data set on AR [2], the “B4 = Relative agonist activity (no R1881) of test compounds (20 μM) in AR overexpressing LNCaP cells (NKX3.1 AR target gene)” value is on record as 1, the “B6 Relative agonist activity (no R1881) of test compounds (20 μM) in AR overexpressing LNCaP cells (PSA AR target gene)” value (shortened to “B6 Relative agonist activity (no R1881)”) is on record as 1, the “B5 = Relative antagonist activity (plus 0.1 nM R1881) of test compounds (20 μM) in AR overexpressing LNCaP cells (NKX3.1 AR target gene)” value (“B5 = Relative antagonist activity” for short) came to 1 and the “B7 = Relative antagonist activity (plus 0.1 nM R1881) of test compounds (20 μM) in AR overexpressing LNCaP cells (PSA AR target gene)” value (“B7 = Relative antagonist activity” below) was 1.

Turning to `O=C1CCCC2=C1Nc1ccc3ccccc3c1C2c1ccc([N+](=O)[O-])cc1` (stereo not drawn) [Compound A10], the “B9 = AR degradation in LNCaP cells” value on AR [1] is recorded as “Degrader (Compounds that degrade AR (greater than 50% degradation at 10 μM) are indicated)”. Also, in the data set with CV1 cells, the “B2 = % Toxicity of test compound (20 μM)” value was found to be 17% and the “B3 = % Toxicity of test compound (60 μM)” value came to 88%. In the data set with AR [2], the “B4 = Relative agonist activity (no R1881) of test compounds (20 μM) in AR overexpressing LNCaP cells (NKX3.1 AR target gene)” value was found to be 2, the “B6 Relative agonist activity (no R1881)” value is listed as 1, the “B5 = Relative antagonist activity” value is given as 2 and the “B7 = Relative antagonist activity” value turned out to be 1.

On to `O=C1CCCC2=C1C(c1ccc([N+](=O)[O-])cc1)c1c(ccc3ccccc13)N2` (stereo not drawn) [Compound A1, 12-(4-nitrophenyl)-8,9,10,12-tetrahydrobenzo[a]acridin-11(7H)-one], for which the “B9 = AR degradation in LNCaP cells” value at AR [1] was “Degrader (Compounds that degrade AR (greater than 50% degradation at 10 μM) are indicated)”. In addition, in the data set with CV1 cells, the “B2 = % Toxicity of test compound (20 μM)” value was 32% and the “B3 = % Toxicity of test compound (60 μM)” value came to 87%. Besides, in the data set with AR [2], the “B4 = Relative agonist activity (no R1881) of test compounds (20 μM) in AR overexpressing LNCaP cells (NKX3.1 AR target gene)” value is 1, the “B6 Relative agonist activity (no R1881)” value is listed as 1, the “B5 = Relative antagonist activity” value is given as 2 and the “B7 = Relative antagonist activity” value was found to be 2.

The record behind these values is patent US20180303807A1, “ANDROGEN RECEPTOR LIGANDS” (DUKE UNIVERSITY, priority 2015, published 2018).
